In patent US12421240B2, “Hydropyrazino[1,2-d][1,4]diazepine compounds for the treatment of autoimmune disease” (Hoffmann-La Roche Inc., priority 2019, dated 2025):
pIC50: −log10 of the molar value.

What follows are compounds tested against T1, human TLR9 (Homo sapiens, UniProt Q9NR96) (assay: HEK293-Blue-hTLR-9 cells assay (SEAP reporter, ODN2006 stimulation)). Conditions: HEK293-Blue-hTLR9 cells, ODN2006 ligand, 20 hrs; read-out: HEK/hTLR9 IC50.
T1 sequence (Q9NR96 26-1032): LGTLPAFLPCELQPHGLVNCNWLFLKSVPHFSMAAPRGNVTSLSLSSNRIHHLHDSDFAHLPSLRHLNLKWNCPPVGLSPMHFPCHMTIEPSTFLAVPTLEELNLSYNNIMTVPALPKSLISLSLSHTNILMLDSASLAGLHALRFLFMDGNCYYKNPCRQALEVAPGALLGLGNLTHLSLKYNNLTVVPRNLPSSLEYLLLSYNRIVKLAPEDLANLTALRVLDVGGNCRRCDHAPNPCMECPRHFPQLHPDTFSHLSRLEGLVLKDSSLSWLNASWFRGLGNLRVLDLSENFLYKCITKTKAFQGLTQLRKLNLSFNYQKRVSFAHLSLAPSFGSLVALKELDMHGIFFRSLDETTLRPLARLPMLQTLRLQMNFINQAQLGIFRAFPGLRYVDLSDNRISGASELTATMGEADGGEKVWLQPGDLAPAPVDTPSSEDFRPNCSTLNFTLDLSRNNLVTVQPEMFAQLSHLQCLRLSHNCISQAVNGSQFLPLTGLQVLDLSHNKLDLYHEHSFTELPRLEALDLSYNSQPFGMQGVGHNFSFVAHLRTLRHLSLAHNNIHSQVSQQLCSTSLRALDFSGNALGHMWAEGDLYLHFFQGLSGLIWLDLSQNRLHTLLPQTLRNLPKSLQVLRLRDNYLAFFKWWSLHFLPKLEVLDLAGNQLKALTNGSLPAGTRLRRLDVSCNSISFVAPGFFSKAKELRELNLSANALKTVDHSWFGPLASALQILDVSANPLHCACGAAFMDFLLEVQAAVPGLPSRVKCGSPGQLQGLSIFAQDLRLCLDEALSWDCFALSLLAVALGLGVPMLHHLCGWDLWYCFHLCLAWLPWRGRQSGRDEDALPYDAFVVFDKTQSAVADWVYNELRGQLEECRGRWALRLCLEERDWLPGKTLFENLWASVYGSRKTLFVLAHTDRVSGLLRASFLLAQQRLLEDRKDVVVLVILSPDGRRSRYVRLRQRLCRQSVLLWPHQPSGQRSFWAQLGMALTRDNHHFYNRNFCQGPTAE
Assay type: cell-based
Procedure: The following tests were carried out in order to determine the activity of the compounds of formula (I), (Ia) or (Ib) in HEK293-Blue-hTLR-7/8/9 cells assay.
HEK293-Blue-hTLR-9 Cells Assay:
A stable HEK293-Blue-hTLR-9 cell line was purchased from InvivoGen (Cat. #: hkb-htlr9, San Diego, California, USA). These cells were originally designed for studying the stimulation of human TLR9 by monitoring the activation of NF-κB. A SEAP (secreted embryonic alkaline phosphatase) reporter gene was placed under the control of the IFN-β minimal promoter fused to five NF-κB and AP-1-binding sites. The SEAP was induced by activating NF-κB and AP-1 via stimulating HEK-Blue hTLR9 cells with TLR9 ligands. Therefore the reporter expression was declined by TLR9 antagonist under the stimulation of a ligand, such as ODN2006 (Cat. #: tlrl-2006-1, Invivogen, San Diego, California, USA), for incubation of 20 hrs. The cell culture supernatant SEAP reporter activity was determined using QUANTI-Blue™ kit (Cat. #: rep-qb1, Invivogen, San Diego, California, USA) at a wavelength of 640 nm, a detection medium that turns purple or blue in the presence of alkaline phosphatase.
HEK293-Blue-hTLR9 cells were incubated at a density of 250,000˜450,000 cells/mL in a volume of 170 μL in a 96-well plate in Dulbecco's Modified Eagle's medium (DMEM) containing 4.5 g/L glucose, 50 U/mL penicillin, […], 2 mM L-glutamine, 10% (v/v) heat-inactivated fetal bovine serum with addition of 20 μL test compound in a serial dilution in the presence of final DMSO at 1% and 10 μL of 20 uM ODN2006 in above DMEM, perform incubation under 37° C. in a CO2 incubator for 20 hrs. Then 20 μL of the supernatant from each well was incubated with 180 μL Quanti-blue substrate solution at 37° C. for 2 h and the absorbance was read at 620-655 nm using a spectrophotometer. The signaling pathway that TLR9 activation leads to downstream NF-κB activation has been widely accepted, and therefore similar reporter assay was modified for evaluating TLR9 antagonist.
A pIC50 of 7.02 was found for `C[C@@H]1CN(c2ccc(C#N)c3ncccc23)C[C@@H]2CCN(Cc3ncc(N4CCNCC4)cn3)CCN21` [Example 13, 5-[(4R,10aS)-4-methyl-8-[(5-piperazin-1-ylpyrimidin-2-yl)methyl]-1,3,4,6,7,9,10,10a-octahydropyrazino[1,2-d][1,4]diazepin-2-yl]quinoline-8-carbonitrile] in this work.
A pIC50 of 7.20 was found for `CO[C@@H]1CN(c2ccc(CN3CC[C@H]4CN(c5ccc(C#N)c6ncccc56)C[C@@H](C)N4CC3)nc2)C[C@H]1N` [Example 22, 5-[(4R,10aS)-8-[[5-[(3R,4R)-3-amino-4-methoxy-pyrrolidin-1-yl]-2-pyridyl]methyl]-4-methyl-1,3,4,6,7,9,10,10a-octahydropyrazino[1,2-d][1,4]diazepin-2-yl]quinoline-8-carbonitrile] in this work.
A pIC50 of 6.68 was found for `C[C@@H]1CN(c2ccc(C#N)c3ncccc23)C[C@@H]2CCN(c3ccc(N4CCNCC4)nc3)CCN21` [Example 1, 5-[(4R,10aS)-4-methyl-8-(6-piperazin-1-yl-3-pyridyl)-1,3,4,6,7,9,10,10a-octahydropyrazino [1,2-d][1,4]diazepin-2-yl]quinoline-8-carbonitrile] in this work.
A pIC50 of over 7.50 was found for `C[C@@H]1CN(c2ccc(C#N)c3ncccc23)C[C@@H]2CCN(Cc3cnc4c(c3)CNCC4)CCN21` [Example 10, 5-[(4R,10aS)-4-methyl-8-(5,6,7,8-tetrahydro-1,6-naphthyridin-3-ylmethyl)-1,3,4,6,7,9,10,10a-octahydropyrazino[1,2-d][1,4]diazepin-2-yl]quinoline-8-carbonitrile] in this work.
A pIC50 of 7.21 was found for `C[C@@H]1CN(c2ccc(C#N)c3ncccc23)C[C@@H]2CCN(Cc3cc4c(cn3)CNCC4)CCN21` [Example 8, 5-[(4R,10aS)-4-methyl-8-(5,6,7,8-tetrahydro-2,7-naphthyridin-3-ylmethyl)-1,3,4,6,7,9,10,10a-octahydropyrazino[1,2-d][1,4]diazepin-2-yl]quinoline-8-carbonitrile] in this work.
A pIC50 of 7.23 was found for `C[C@@H]1CN(c2ccc(C#N)c3ncccc23)C[C@@H]2CCN(c3cnc(N4CCNCC4)nc3)CCN21` [Example 2, 5-[(4R,10aS)-4-methyl-8-(2-piperazin-1-ylpyrimidin-5-yl)-1,3,4,6,7,9,10,10a-octahydropyrazino[1,2-d][1,4]diazepin-2-yl]quinoline-8-carbonitrile] in this work.
A pIC50 of 7.18 was found for `CO[C@@H]1CN(c2cnc(CN3CC[C@H]4CN(c5ccc(C#N)n6ncc(F)c56)C[C@@H](C)N4CC3)c(F)c2)C[C@H]1N` [Example 27, 4-[(4R,10aS)-8-[[5-[(3R,4R)-3-amino-4-methoxy-pyrrolidin-1-yl]-3-fluoro-2-pyridyl]methyl]-4-methyl-1,3,4,6,7,9,10,10a-octahydropyrazino[1,2-d][1,4]diazepin-2-yl]-3-fluoro-pyrazolo[1,5-a]pyridine-7-carbonitrile] in this work.
A pIC50 of 7.06 was found for `CO[C@@H]1CN(c2cnc(CN3CC[C@H]4CN(c5ccc(C#N)n6nccc56)C[C@@H](C)N4CC3)c(F)c2)C[C@H]1N` [Example 26, 4-[(4R,10aS)-8-[[5-[(3R,4R)-3-amino-4-methoxy-pyrrolidin-1-yl]-3-fluoro-2-pyridyl]methyl]-4-methyl-1,3,4,6,7,9,10,10a-octahydropyrazino[1,2-d][1,4]diazepin-2-yl]pyrazolo[1,5-a]pyridine-7-carbonitrile] in this work.
A pIC50 of 7.14 was found for `C[C@@H]1CN(c2ccc(C#N)c3ncccc23)C[C@@H]2CCN(c3ccc4c(n3)CNCC4)CCN21` [Example 5, 5-[(4R,10aS)-4-methyl-8-(5,6,7,8-tetrahydro-1,7-naphthyridin-2-yl)-1,3,4,6,7,9,10,10a-octahydropyrazino[1,2-d][1,4]diazepin-2-yl]quinoline-8-carbonitrile] in this work.
A pIC50 of over 7.50 was found for `C[C@@H]1CN(c2ccc(C#N)c3ncccc23)C[C@@H]2CCN(Cc3cccc(N4CCNCC4)n3)CCN21` [Example 18, 5-[(4R,10aS)-4-methyl-8-[(6-piperazin-1-yl-2-pyridyl)methyl]-1,3,4,6,7,9,10,10a-octahydropyrazino[1,2-d][1,4]diazepin-2-yl]quinoline-8-carbonitrile] in this work.
A pIC50 of 7.46 was found for `C[C@@H]1CN(c2ccc(C#N)c3ncccc23)C[C@@H]2CCN(Cc3cc4c(cn3)CCNC4)CCN21` [Example 9, 5-[(4R,10aS)-4-methyl-8-(5,6,7,8-tetrahydro-2,6-naphthyridin-3-ylmethyl)-1,3,4,6,7,9,10,10a-octahydropyrazino[1,2-d][1,4]diazepin-2-yl]quinoline-8-carbonitrile] in this work.
A pIC50 of 7.44 was found for `C[C@@H]1CN(c2ccc(C#N)c3ncccc23)C[C@@H]2CCN(Cc3cnc(N4CCNCC4)cn3)CCN21` [Example 15, 5-[(4R,10aS)-4-methyl-8-[(5-piperazin-1-ylpyrazin-2-yl)methyl]-1,3,4,6,7,9,10,10a-octahydropyrazino[1,2-d][1,4]diazepin-2-yl]quinoline-8-carbonitrile] in this work.
A pIC50 of over 7.50 was found for `C[C@@H]1CN(c2ccc(C#N)c3ncccc23)C[C@@H]2CCN(c3cncc4c3CCNC4)CCN21` [Example 4, 5-[(4R,10aS)-4-methyl-8-(5,6,7,8-tetrahydro-2,7-naphthyridin-4-yl)-1,3,4,6,7,9,10,10a-octahydropyrazino[1,2-d][1,4]diazepin-2-yl]quinoline-8-carbonitrile] in this work.
A pIC50 of 7.22 was found for `CO[C@@H]1CN(c2cnc(CN3CC[C@H]4CN(c5ccc(C#N)c6ncccc56)C[C@@H](C)N4CC3)c(F)c2)C[C@H]1N` [Example 24, 5-[(4R,10aS)-8-[[5-[(3R,4R)-3-amino-4-methoxy-pyrrolidin-1-yl]-3-fluoro-2-pyridyl]methyl]-4-methyl-1,3,4,6,7,9,10,10a-octahydropyrazino[1,2-d][1,4]diazepin-2-yl]quinoline-8-carbonitrile] in this work.
A pIC50 of 7.00 was found for `C[C@@H]1CN(c2ccc(C#N)c3ncccc23)C[C@@H]2CCN(c3ccc4c(n3)CCNC4)CCN21` [Example 6, 5-[(4R,10aS)-4-methyl-8-(5,6,7,8-tetrahydro-1,6-naphthyridin-2-yl)-1,3,4,6,7,9,10,10a-octahydropyrazino[1,2-d][1,4]diazepin-2-yl]quinoline-8-carbonitrile] in this work.
A pIC50 of 7.41 was found for `C[C@@H]1CN(c2ccc(C#N)c3ncccc23)C[C@@H]2CCN(Cc3ncc(N4CCNCC4)cc3F)CCN21` [Example 23, 5-[(4R,10aS)-8-[(3-fluoro-5-piperazin-1-yl-2-pyridyl)methyl]-4-methyl-1,3,4,6,7,9,10,10a-octahydropyrazino[1,2-d][1,4]diazepin-2-yl]quinoline-8-carbonitrile] in this work.
A pIC50 of 7.36 was found for `C[C@@H]1CN(c2ccc(C#N)c3ncccc23)C[C@@H]2CCN(Cc3ccc4c(c3)CNCC4)CCN21` [Example 12, 5-[(4R,10aS)-4-methyl-8-(1,2,3,4-tetrahydroisoquinolin-7-ylmethyl)-1,3,4,6,7,9,10,10a-octahydropyrazino[1,2-d][1,4]diazepin-2-yl]quinoline-8-carbonitrile] in this work.
A pIC50 of 7.46 was found for `C[C@@H]1CN(c2ccc(C#N)c3ncccc23)C[C@@H]2CCN(Cc3ccc(N4C[C@@H](N)[C@@H](F)C4)cn3)CCN21` [Example 20, 5-[(4R,10aS)-8-[[5-[(3R,4S)-3-amino-4-fluoro-pyrrolidin-1-yl]-2-pyridyl]methyl]-4-methyl-1,3,4,6,7,9,10,10a-octahydropyrazino[1,2-d][1,4]diazepin-2-yl]quinoline-8-carbonitrile] in this work.
